In patent US6632447B1, “Method for chemoprevention of prostate cancer” (The University of Tennessee Research Corporation, priority 1998, dated 2003):

Columns and labels:
[1] = tested on: prostate tumor in TRAMP mice; experiment: Prostatic wholemount, histology and large T antigen immunohistochemistry in TRAMP mice; type: in vivo, mouse; settings: vs placebo at 15 weeks
Procedure: This present study focuses on the histological and molecular changes associated with development of prostate tumor in control animals and the mechanism of toremifene chemopreventive action with TRAMP animals which are bred, screened and treated with sustained-release drug pellets. At predetermined times, groups of 5 animals were sacrificed and their prostates were removed for analysis. The prostate glands were evaluated for the presence of tumor by histology, wholemount dissections, and large T antigen immunohistochemistry. To date, the Placebo and the Toremifene treatments have been completed for the 7, 10, 15 and 20 week time-points and the results are described below.
Prostatic wholemounts for 7, 10, 15, and 20 weeks for the various groups have been completed. […] By 20 weeks, there is a striking delay in tumor occurrence in the Toremifene treated group up to 35 weeks FIG. 4). […] For histological evaluation, tissue samples were fixed, processed and paraffin embedded. Sections ([…]) were cut and stained by routine H&E method.

[2] = tested on: human stromal fibroblast cells; experiment: TGF synthesis in human stromal fibroblast cells; type: cell-based
[3] = tested on: prostate intraepithelial neoplasia (PIN); experiment: Phase IIa prostate cancer chemoprevention human clinical trial (PIN regression); type: in vivo; settings: 60 mg daily for 4 months
Procedure: A Phase IIa, open labeled non randomized single center study with 21 human subjects was conducted. […] After 4 months, patients are rebiopsied (8 biopsies) and PIN status is reassessed. Twenty-one patients entered the study and sixteen patients have completed the study.

[4] = tested on: prostate cancer in the ventral prostate of TRAMP mice; experiment: Chemopreventive activity of toremifene pellets in TRAMP transgenic mice (palpable tumor formation); type: in vivo, mouse
Excerpt: The study of prostate cancer chemoprevention has been hindered by the lack of appropriate animal models. The recent development of the transgenic adenocarcinoma mouse prostate (TRAMP) model enables the study of chemoprevention. In the TRAMP model, which is described in Greenberg et al., AProstate cancer in a transgenic mouse, Proc. Natl Acad. Sci. USA, 1995, Vol. 92, pages 3439-3443, the PB-SV40 large T antigen (PB-Tag) transgene is expressed specifically in the epithelial cells of the murine prostate. […]
A study was undertaken to test the efficacy of chemopreventive agents in TRAMP transgenic animals (PBTag X FVBwt) (provided by Dr. Norman Greenberg, Baylor College of Medicine, TX). […] The efficacy of the treatment was measured by the absence of palpable tumor formation. The murine prostate tumors were harvested and evaluated by molecular and histological techniques.

[5] = tested on: TRAMP mouse ventral prostate; experiment: Histological examination (H&E) of ventral prostate tissue of TRAMP mice; type: in vivo; settings: toremifene-treated 30-week-old TRAMP mouse vs placebo-treated 16-week-old
Procedure: 1) Prostate wholemount analysis is serially performed to detect changes in prostate ductal morphology over time with and without treatment; examples are shown in FIG. 2. Tissue sections are evaluated histologically by H&E and Masson-trichome standard staining. The emergence of PIN is assessed and graded (I-mild to III-severe).
Tumors from the placebo and high toremifene-treated groups taken at the time of palpation were evaluated histologically. FIG. 2A is an H&E section of the ventral prostate of a 17-week-old normal adult mouse.

What does the source list for CN(C)CCOc1ccc(/C(=C(/CCCl)c2ccccc2)c2ccccc2)cc1 [Toremifene, toremifene]?
ductal development and tissue differentiation (H&E histology) [1]: inhibited the ductal development and tissue differentiation; TGF? synthesis [2]: significantly induce TGF? synthesis; serum PSA, serum free testosterone, serum total testosterone and serum estradiol [3]: remained in the normal ranges; patients with regression of PIN to benign or atrophic prostate tissue (complete response) ([3]; 16 patients completed): 12 out of 16; delay of time to tumors in 25% of the animals ([4]; high and low toremifene groups versus placebo): 7-8 weeks; week by which tumors were palpable in 25% of the animals ([4]; high and low toremifene groups, placebo week 23): 30-31 weeks; glandular architecture of the prostate (H&E) [5]: retains much of the normal glandular architecture; mitotic index [5]: much lower than that for the placebo-treated animal
